Target: T1, IRAK4 (Homo sapiens, UniProt Q9NWZ3)
T1 construct: C-terminal HiBiT-tagged Jurkat cells (polyclonal cell line or clone 8D5); endogenous in cells; host or cells: Jurkat cells (polyclonal cell line or clone 8D5), HiBiT-tagged
T1 sequence (Q9NWZ3 1-460): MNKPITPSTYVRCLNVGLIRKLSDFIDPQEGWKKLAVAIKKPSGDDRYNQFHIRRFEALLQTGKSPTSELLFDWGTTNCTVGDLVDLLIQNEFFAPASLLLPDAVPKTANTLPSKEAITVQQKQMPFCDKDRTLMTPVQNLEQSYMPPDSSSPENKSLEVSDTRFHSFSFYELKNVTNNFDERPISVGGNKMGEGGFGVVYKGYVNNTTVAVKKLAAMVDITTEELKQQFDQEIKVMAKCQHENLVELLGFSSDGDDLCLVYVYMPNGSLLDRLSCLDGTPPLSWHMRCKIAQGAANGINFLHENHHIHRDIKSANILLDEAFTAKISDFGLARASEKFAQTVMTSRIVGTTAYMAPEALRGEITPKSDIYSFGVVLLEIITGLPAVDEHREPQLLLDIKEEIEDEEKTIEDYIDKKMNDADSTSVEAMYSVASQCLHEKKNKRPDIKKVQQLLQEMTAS
Experiment: IRAK4 Degradation HiBit Assay
Format: cell-based
Details: C-terminal HiBiT-tagged Jurkat cells, 4 hrs incubation; for DC50: % IRAK4 remaining, four-parameter fit (IC50 used as DC50); for Dmax: from fit of % IRAK4 remaining, read-out: Dmax
How it was run: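 Degradation was quantified by luminescence after adding lytic detection reagent containing LgBiT to HiBiT-tagged Jurkat cells (polyclonal or clone 8D5). Cells were treated 4 h at 32 °C across 11 concentrations from 10 μM to 0.1 nM final. Four-parameter curve fitting of % IRAK4 remaining versus DMSO gave DC50 and Dmax.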

Compound	DC50	Dmax
CC(C)Nc1cc(-c2ccc3cc(C#N)cnn23)ncc1-c1nnc(N2CCN(CC3CCN(c4ccc(C5CCC(=O)NC5=O)cc4)CC3)CC2)s1 (racemic) [Example 64, rac-7-[5-(5-{4-[(1-{4-[(3R)-2,6-dioxopiperidin-3-yl]phenyl}piperidin-4-yl)methyl]piperazin-1-yl}-1,3,4-thiadiazol-2-yl)-4-[(propan-2-yl)amino]pyridin-2-yl]pyrrolo[1,2-b]pyridazine-3-carbonitrile]	123 nM	76%
N#Cc1cnn2c(-c3cc(NC4CCOCC4)c(-c4nnc(N5CCN(CC6CCN(c7ccc(C8CCC(=O)NC8=O)c(F)c7)CC6)CC5)s4)cn3)ccc2c1 (racemic) [Example 3, rac-7-[5-(5-{4-[(1-{4-[(3R)-2,6-dioxopiperidin-3-yl]-3-fluorophenyl}piperidin-4-yl)methyl]piperazin-1-yl}-1,3,4-thiadiazol-2-yl)-4-[(oxan-4-yl)amino]pyridin-2-yl]pyrrolo[1,2-b]pyridazine-3-carbonitrile]	55 nM	93%
N#Cc1cnn2c(-c3cc(NC4(C#N)CC4)c(-c4nnc(N5CC6CCC(C5)N6CC5CCN(c6ccc([C@@H]7CCC(=O)NC7=O)cn6)CC5)s4)cn3)ccc2c1 (single isomer, unassigned) [Example 134]	20 nM	111%
N#Cc1cnn2c(-c3cc(N[C@H]4CCOC4)c(-c4nnc(N5CCN(CC6CCN(c7ccc([C@H]8CCC(=O)NC8=O)cn7)CC6)CC5)s4)cn3)ccc2c1 (single isomer, unassigned) [Example 144]	166 nM	87%
CC(C)Nc1cc(-c2ccc3cc(C#N)cnn23)ncc1-c1nnc(N2CC3CCC(C2)N3CC2CCN(c3ccc([C@@H]4CCC(=O)NC4=O)cn3)CC2)s1 (single isomer, unassigned) [Example 122]	58 nM	105%
N#Cc1cnn2c(-c3cc(NC4CCOCC4)c(-c4nnc(N5CCN(C(=O)CN6CCN(c7cc(C8CCC(=O)NC8=O)ccn7)CC6)CC5)s4)cn3)ccc2c1 (racemic) [Example 15, rac-7-[5-(5-{4-[2-(4-{4-[(3R)-2,6-dioxopiperidin-3-yl]pyridin-2-yl}piperazin-1-yl)acetyl]piperazin-1-yl}-1,3,4-thiadiazol-2-yl)-4-[(oxan-4-yl)amino]pyridin-2-yl]pyrrolo[1,2-b]pyridazine-3-carbonitrile]	15 nM	60%
CNc1cc(-c2ccc3cc(C#N)cnn23)ncc1-c1nnc(N2CC3(CCN(C(=O)C4CCN(c5ccc(C6CCC(=O)NC6=O)cn5)CC4)CC3)C2)s1 (racemic) [Example 40, rac-7-(5-{5-[7-(1-{5-[(3R)-2,6-dioxopiperidin-3-yl]pyridin-2-yl}piperidine-4-carbonyl)-2,7-diazaspiro[3.5]nonan-2-yl]-1,3,4-thiadiazol-2-yl}-4-(methylamino)pyridin-2-yl)pyrrolo[1,2-b]pyridazine-3-carbonitrile]	19 nM	114%
CNc1cc(-c2ccc3cc(C#N)cnn23)ncc1-c1nnc([C@H]2CC[C@H](N(C)C(=O)C3CCN(c4ccc([C@@H]5CCC(=O)NC5=O)cn4)CC3)CC2)s1 (racemic) [Example 49, 1-{5-[(3RS)-2,6-dioxopiperidin-3-yl]pyridin-2-yl}-N-methyl-N-[(1r,4r)-4-[5-(6-{3-cyanopyrrolo[1,2-b]pyridazin-7-yl}-4-(methylamino)pyridin-3-yl)-1,3,4-thiadiazol-2-yl]cyclohexyl]piperidine-4-carboxamide]	13 nM	112%
CCN(CC1CCN(c2ccc([C@@H]3CCC(=O)NC3=O)cn2)CC1)[C@H]1CC[C@H](c2nnc(-c3cnc(-c4ccc5cc(C#N)cnn45)cc3NC)s2)CC1 (racemic) [Example 36, 7-[4-(methylamino)-5-{5-[(1r,4r)-4-{[(1-{5-[(3RS)-2,6-dioxopiperidin-3-yl]pyridin-2-yl}piperidin-4-yl)methyl](ethyl)amino}cyclohexyl]-1,3,4-thiadiazol-2-yl}pyridin-2-yl]pyrrolo[1,2-b]pyridazine-3-carbonitrile]	20 nM	105%
N#Cc1cnn2c(-c3cc(NC4CCOCC4)c(-c4nnc(N5CC6CCC(C5)N6CC5CCN(c6ccc([C@@H]7CCC(=O)NC7=O)cn6)CC5)s4)cn3)ccc2c1 (single isomer, unassigned) [Example 111]	32 nM	110%
CCNc1cc(-c2ccc3cc(C#N)cnn23)ncc1-c1nnc(N2CCN(CC3CCN(c4ccc(C5CCC(=O)NC5=O)cn4)CC3)CC2)o1 (racemic) [Example 69, rac-7-[5-(5-{4-[(1-{5-[(3R)-2,6-dioxopiperidin-3-yl]pyridin-2-yl}piperidin-4-yl)methyl]piperazin-1-yl}-1,3,4-oxadiazol-2-yl)-4-(ethylamino)pyridin-2-yl]pyrrolo[1,2-b]pyridazine-3-carbonitrile]	1000 nM	84%
N#Cc1cnn2c(-c3cc(N[C@@H]4CCOC4)c(-c4nnc(N5CCN(CC6CCN(c7ccc([C@H]8CCC(=O)NC8=O)cn7)CC6)CC5)s4)cn3)ccc2c1 (single isomer, unassigned) [Example 137]	104 nM	88%
N#Cc1cnn2c(-c3cc(NC4CCOCC4)c(-c4nnc(N5CCN(CC6CCN(c7ccc([C@H]8CCC(=O)NC8=O)cn7)CC6)CC5)s4)cn3)ccc2c1 (single isomer, unassigned) [Example 30]	40 nM	104%
N#CCNc1cc(-c2ccc3cc(C#N)cnn23)ncc1-c1nnc(N2CCN(CC3CCN(c4ccc([C@@H]5CCC(=O)NC5=O)cn4)CC3)CC2)s1 (single isomer, unassigned) [Example 132]	13 nM	111%
CNc1cc(-c2ccc3cc(C#N)cnn23)ncc1-c1nnc(N2CCN(C3CCN(CC4CCN(c5ccc(C6CCC(=O)NC6=O)cn5)CC4)CC3)CC2)s1 (racemic) [Example 53, rac-7-{5-[5-(4-{1-[(1-{5-[(3R)-2,6-dioxopiperidin-3-yl]pyridin-2-yl}piperidin-4-yl)methyl]piperidin-4-yl}piperazin-1-yl)-1,3,4-thiadiazol-2-yl]-4-(methylamino)pyridin-2-yl}pyrrolo[1,2-b]pyridazine-3-carbonitrile]	64 nM	114%
CCNc1cc(-c2ccc3cc(C#N)cnn23)ncc1-c1nnc(N2CCN(CC3CCN(c4ccc(C5CCC(=O)NC5=O)cn4)CC3)CC2)s1 (racemic) [Example 68, rac-7-[5-(5-{4-[(1-{5-[(3R)-2,6-dioxopiperidin-3-yl]pyridin-2-yl}piperidin-4-yl)methyl]piperazin-1-yl}-1,3,4-thiadiazol-2-yl)-4-(ethylamino)pyridin-2-yl]pyrrolo[1,2-b]pyridazine-3-carbonitrile]	187 nM	103%
N#CCNc1cc(-c2ccc3cc(C#N)cnn23)ncc1-c1nnc(N2CC3CCC(C2)N3CC2CCN(c3ccc([C@@H]4CCC(=O)NC4=O)cn3)CC2)s1 (single isomer, unassigned) [Example 133]	13 nM	110%
N#Cc1cnn2c(-c3cc(NC4CCOCC4)c(-c4nnc(C56CCC(C(=O)N7CCN(c8ccc(C9CCC(=O)NC9=O)cn8)CC7)(CC5)CC6)s4)cn3)ccc2c1 (racemic) [Example 22, rac-7-(5-{5-[4-(4-{5-[(3R)-2,6-dioxopiperidin-3-yl]pyridin-2-yl}piperazine-1-carbonyl)bicyclo[2.2.2]octan-1-yl]-1,3,4-thiadiazol-2-yl}-4-[(oxan-4-yl)amino]pyridin-2-yl)pyrrolo[1,2-b]pyridazine-3-carbonitrile]	23 nM	84%
N#Cc1cnn2c(-c3cc(NC4CC4)c(-c4nnc(N5CC6CCC(C5)N6CC5CCN(c6ccc([C@H]7CCC(=O)NC7=O)cn6)CC5)s4)cn3)ccc2c1 (racemic) [Example 95, rac-7-[4-(cyclopropylamino)-5-(5-{8-[(1-{5-[(3R)-2,6-dioxopiperidin-3-yl]pyridin-2-yl}piperidin-4-yl)methyl]-3,8-diazabicyclo[3.2.1]octan-3-yl}-1,3,4-thiadiazol-2-yl)pyridin-2-yl]pyrrolo[1,2-b]pyridazine-3-carbonitrile]	27 nM	108%
CNc1cc(-c2ccc3cc(C#N)cnn23)ncc1-c1nnc([C@H]2CC[C@H](N(C)CC3CCN(c4ccc([C@@H]5CCC(=O)NC5=O)cn4)CC3)CC2)s1 (racemic) [Example 52, 7-[4-(methylamino)-5-{5-[(1r,4r)-4-{[(1-{5-[(3RS)-2,6-dioxopiperidin-3-yl]pyridin-2-yl}piperidin-4-yl)methyl](methyl)amino}cyclohexyl]-1,3,4-thiadiazol-2-yl}pyridin-2-yl]pyrrolo[1,2-b]pyridazine-3-carbonitrile]	19 nM	113%

— patent US12570662B2, “Substituted pyrrolo[1,2-b]pyridazines as bifunctional degraders of interleukin-1 receptor-associated kinases” (Nurix Therapeutics, Inc., priority 2021, dated 2026)
